The record followed here is US8637525B2, “Compounds for the reduction of beta-amyloid production” (Bristol-Myers Squibb Company, priority 2009, dated 2014).

By IC50 is commonly meant the concentration needed to halve the response being measured.

Molecules are shown by their SMILES.

One assay deals with Aβ1-42 production. Nature of the assay: Cellular assay for inhibition of Aβ1-42 production (H4 APP751 SWE clone 8.20). The conditions noted are these: 19 h, H4 APP751 SWE clone 8.20 cells, 19 h incubation; class symbols; read-out: Activity Rating (Aβ42 cellular IC50). It is filed as cell-based. An outline of the steps:
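H4 cells stably expressing Swedish-mutant APP751 incubated with compound 19 h at 37 °C, 5% CO2. Secreted Aβ42 detected by HTRF with Aβ42 neoepitope antibody 565 (0.8 ng/well) and N-terminal 26D6 (75 ng/well), overnight at 4 °C. IC50 obtained by curve fitting.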
Regarding `COc1cc(Nc2nc3c(c(N4CC(F)(F)C4)n2)COCC3c2ccc(Cl)cc2)ccc1-n1cnc(Cl)c1` (stereo not shown) [Example 66, N-(4-(4-chloro-1H-imidazol-1-yl)-3-methoxyphenyl)-8-(4-chlorophenyl)-4-(3,3-difluoroazetidin-1-yl)-7,8-dihydro-5H-pyrano[4,3-d]pyrimidin-2-amine], the IC50 lay within 10 to 100 nM.

As to `COc1cc(Nc2nc3c(c(N4C[C@@H]5C[C@H]4CO5)n2)CCC3c2ccc(F)cc2)ccc1-n1cnc(Cl)c1` (stereo partly drawn) [Example 18, 4-((1S,4S)-2-oxa-5-azabicyclo[2.2.1]heptan-5-yl)-N-(4-(4-chloro-1H-imidazol-1-yl)-3-methoxyphenyl)-7-(4-fluorophenyl)-6,7-dihydro-5H-cyclopenta[d]pyrimidin-2-amine], the IC50 is 10 to 100 nM.

With `CNc1nc(Nc2ccncc2)nc2c1CCC2c1ccccc1` (stereo not shown) [Example 224, N4-methyl-7-phenyl-N2-(pyridin-4-yl)-6,7-dihydro-5H-cyclopenta[d]pyrimidine-2,4-diamine], the IC50 was greater than 1000 nM.

`CNc1nc(Nc2ccc(-n3cnc(C)n3)c(OC)c2)nc2c1CC[C@@H]2c1cccc(OC)c1` [Example 272B, (R)—N2-(3-methoxy-4-(3-methyl-1H-1,2,4-triazol-1-yl)phenyl)-7-(3-methoxyphenyl)-N4-methyl-6,7-dihydro-5H-cyclopenta[d]pyrimidine-2,4-diamine]: the IC50 is 10 to 100 nM.

For the compound `CCN(C)c1nc(Nc2ccc(-n3cnc(Cl)c3)c(OC)c2)nc2c1CCC2c1ccccc1` (stereo not shown) [Example 5, N^2-(4-(4-Chloro-1H-imidazol-1-yl)-3-methoxyphenyl)-N^4-ethyl-N^4-methyl-7-phenyl-6,7-dihydro-5H-cyclopenta[d]pyrimidine-2,4-diamine], the half-maximal inhibitory concentration (IC50) lay in the range of 1.5 to 9.9 nM.

Take `COc1cc(Nc2nc3c(c(N4CC(=O)C4)n2)CCC3c2ccccc2)ccc1-n1cnc(Cl)c1` (stereo not shown) [Example 185, 1-(2-(4-(4-chloro-1H-imidazol-1-yl)-3-methoxyphenylamino)-7-phenyl-6,7-dihydro-5H-cyclopenta[d]pyrimidin-4-yl)azetidin-3-one]: the IC50 lay within 10 to 100 nM.

For `CNc1nc(Nc2ccc(C#N)c3ccccc23)nc2c1CCC2c1ccccc1` (stereo not shown) [Example 229, 4-(4-(methylamino)-7-phenyl-6,7-dihydro-5H-cyclopenta[d]pyrimidin-2-ylamino)-1-naphthonitrile], the IC50 was greater than 1000 nM.

`COc1cc(Nc2nc3c(c(N4CC[C@H](F)C4)n2)CCC3c2ccc(F)cc2)ccc1-n1cnc(Cl)c1` (single isomer, unassigned) [Example 37]: the IC50 was in the range of 1.5 to 9.9 nM.

As for `COc1cc(Nc2nc3c(c(N4CC[C@@H](F)C4)n2)COCC3c2ccc(OC(F)(F)F)cc2)ccc1-n1cnc(Cl)c1` (stereo partly shown) [Example 123A], the IC50 lay in the range of 10 to 100 nM.

Take `CNc1nc(Nc2ccc(C3CC3)cc2)nc2c1CCC2c1ccc(F)cc1` (stereo not shown) [Example 258, N2-(4-cyclopropylphenyl)-7-(4-fluorophenyl)-N4-methyl-6,7-dihydro-5H-cyclopenta[d]pyrimidine-2,4-diamine]: the IC50 is greater than 1000 nM.

With `CNc1nc(Nc2ccc3[nH]ccc3c2)nc2c1CCC2c1ccccc1` (stereo not shown) [Example 251, N2-(1H-indol-5-yl)-N4-methyl-7-phenyl-6,7-dihydro-5H-cyclopenta[d]pyrimidine-2,4-diamine], the IC50 is greater than 1000 nM.

Still in this assay, the particulars now being: 19 h, H4 APP751 SWE clone 8.20 cells, 19 h incubation; read-out: Activity Rating (Aβ42 cellular IC50), numeric value.
With `CCNc1nc(Nc2ccc(-n3cnc(Cl)c3)c(OC)c2)nc2c1CN(C(=O)C1CC1)CC2c1ccccc1` (stereo not shown) [Example 132A, (2-(4-(4-chloro-1H-imidazol-1-yl)-3-methoxyphenylamino)-4-(ethylamino)-8-phenyl-7,8-dihydropyrido[4,3-d]pyrimidin-6(5H)-yl)(cyclopropyl)methanone], the IC50 was determined as 15 nM.

As to `CNc1nc(Nc2ccc(-n3cnc(Cl)c3)c(OC)c2)nc2c1COC2c1ccc(F)cc1` (single isomer, unassigned) [Example 79A, N^2-(4-(4-chloro-1H-imidazol-1-yl)-3-methoxyphenyl)-7-(4-fluorophenyl)-N^4-methyl-5,7-dihydrofuro[3,4-d]pyrimidine-2,4-diamine], the IC50 amounted to 5.8 nM.

Staying with this assay, now noted: H4 APP751 SWE clone 8.20 cells, 19 h incubation; class symbols; read-out: Activity Rating (Aβ42 cellular IC50).
As to `Cc1ncnn1-c1ccc(Nc2nc3c(c(N4CC(F)(F)C4)n2)CCC3c2ccc(F)cc2)cc1F` (single isomer, unassigned) [Example 16A, 4-(3,3-difluoroazetidin-1-yl)-N-(3-fluoro-4-(5-methyl-1H-1,2,4-triazol-1-yl)phenyl)-7-(4-fluorophenyl)-6,7-dihydro-5H-cyclopenta[d]pyrimidin-2-amine], the 50% inhibitory concentration (IC50) was 1.5 to 9.9 nM.

`COc1cc(Nc2nc3c(c(N4CC(F)C4)n2)CCC3c2ccccc2)ccc1-n1cnc(Cl)c1` (stereo not shown) [Example 182A, N-(4-(4-chloro-1H-imidazol-1-yl)-3-methoxyphenyl)-4-(3-fluoroazetidin-1-yl)-7-phenyl-6,7-dihydro-5H-cyclopenta[d]pyrimidin-2-amine]: the IC50 fell in the range of 1.5 to 9.9 nM.

In the case of `COc1cc(Nc2nc3c(c(N(C)C)n2)CCC3c2ccc(F)cc2)ccc1-n1cnc(Cl)c1` (single isomer, unassigned) [Example 46A, N^2-(4-(4-chloro-1H-imidazol-1-yl)-3-methoxyphenyl)-7-(4-fluorophenyl)-N^4,N^4-dimethyl-6,7-dihydro-5H-cyclopenta[d]pyrimidine-2,4-diamine], the IC50 is 1.5 to 9.9 nM.

Consider `CNc1nc(Nc2ccc(-n3ncnc3C)c(F)c2)nc2c1COCC2c1ccc(Cl)cc1` (single isomer, unassigned) [Example 69A, 8-(4-chlorophenyl)-N^2-(3-fluoro-4-(5-methyl-1H-1,2,4-triazol-1-yl)phenyl)-N^4-methyl-7,8-dihydro-5H-pyrano[4,3-d]pyrimidine-2,4-diamine], for which the IC50 was 1.5 to 9.9 nM.

As for `CCNc1nc(Nc2ccc(-n3cnc(Cl)c3)c(OC)c2)nc2c1CN(C(=O)COC)CC2c1ccccc1` (stereo not shown) [Example 133, 1-(2-(4-(4-chloro-1H-imidazol-1-yl)-3-methoxyphenylamino)-4-(ethylamino)-8-phenyl-7,8-dihydropyrido[4,3-d]pyrimidin-6(5H)-yl)-2-methoxyethanone], the IC50 was in the range of 10 to 100 nM.

Turning to `COc1cc(Nc2nc3c(c(N4C[C@@H](C)O[C@@H](C)C4)n2)CCC3c2ccc(F)cc2)ccc1-n1cnc(Cl)c1` (single isomer, unassigned) [Example 21B], the half-maximal inhibitory concentration (IC50) fell in the range of 100 to 1000 nM.

In the case of `COc1cc(Nc2nc3c(c(N(C)C)n2)CCC3c2ccccc2)ccc1-n1cnc(Cl)c1` (single isomer, unassigned) [Example 4A, N^2-(4-(4-chloro-1H-imidazol-1-yl)-3-methoxyphenyl)-N^4,N^4-dimethyl-7-phenyl-6,7-dihydro-5H-cyclopenta[d]pyrimidine-2,4-diamine], the IC50 was in the range of 1.5 to 9.9 nM.

For `CCNc1nc(Nc2ccc(-n3cnc(Cl)c3)c(OC)c2)nc2c1CN(S(=O)(=O)CC)CC2c1ccccc1` (stereo not shown) [Example 138, N2-(4-(4-chloro-1H-imidazol-1-yl)-3-methoxyphenyl)-N4-ethyl-6-(ethylsulfonyl)-8-phenyl-5,6,7,8-tetrahydropyrido[4,3-d]pyrimidine-2,4-diamine], the IC50 fell in the range of 10 to 100 nM.

The assay is the same for the next values; noted with them: H4 APP751 SWE clone 8.20 cells, 19 h incubation; read-out: Activity Rating (Aβ42 cellular IC50), numeric value.
On to `COc1cc(Nc2nc3c(c(N(C)C)n2)COCC3c2ccc(Cl)cc2)ccc1-n1cnc(Cl)c1` (single isomer, unassigned) [Example 65A, N^2-(4-(4-chloro-1H-imidazol-1-yl)-3-methoxyphenyl)-8-(4-chlorophenyl)-N^4,N^4-dimethyl-7,8-dihydro-5H-pyrano[4,3-d]pyrimidine-2,4-diamine], for which the IC50 amounted to 5.3 nM.
